Measurements published in ChEMBL document CHEMBL1201862, “PubChem BioAssay data set” (2004).
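In this assay, cells in 96-well plates receive the compound at five concentrations for 48 hours. Endpoints are linearly interpolated between the surrounding concentrations. GI50 is the concentration that inhibits growth by half.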 Active and inactive are the calls of the source. No stated cut-off is given here; in the data, active = GI50 up to about 1.1 µM and inactive = higher.

Assays:
Assay in all cases: DTP human tumour cell line panel, 48 h
A498 = tested on: A498
COLO 205 = tested on: COLO 205
HCC 2998 = tested on: HCC 2998
HCT-15 = tested on: HCT-15
HOP-92 = tested on: HOP-92
HT-29 = tested on: HT-29
LOX IMVI = tested on: LOX IMVI
M14 = tested on: M14
Malme-3M = tested on: Malme-3M
NCI-H460 = tested on: NCI-H460
OVCAR-4 = tested on: OVCAR-4
OVCAR-8 = tested on: OVCAR-8
SF-539 = tested on: SF-539
SK-MEL-28 = tested on: SK-MEL-28
SK-MEL-2 = tested on: SK-MEL-2
SK-OV-3 = tested on: SK-OV-3
T47D = tested on: T47D
TK-10 = tested on: TK-10
UO-31 = tested on: UO-31

SMILES | GI50 (A498) | GI50 (COLO 205) | GI50 (HCC 2998) | GI50 (HCT-15) [µM] | GI50 (HOP-92) | GI50 (HT-29) | GI50 (LOX IMVI) | GI50 (M14) | GI50 (Malme-3M) | GI50 (NCI-H460) | GI50 (OVCAR-4) | GI50 (OVCAR-8) | GI50 (SF-539) | GI50 (SK-MEL-28) | GI50 (SK-MEL-2) | GI50 (SK-OV-3) | GI50 (T47D) | GI50 (TK-10) | GI50 (UO-31)
O=C(O)CC1(CC(=O)O)Nc2ccccc2SC1=O | > 100 µM (inactive) | > 100 µM (inactive) | > 100 µM (inactive) | > 100 | > 100 µM (inactive) | > 100 µM (inactive) | > 100 µM (inactive) | > 100 µM (inactive) | > 100 µM (inactive) | > 100 µM (inactive) | > 100 µM (inactive) | > 100 µM (inactive) | 0.0904 µM (active) | > 100 µM (inactive) | > 100 µM (inactive) | > 100 µM (inactive) | > 100 µM (inactive) | > 100 µM (inactive) | > 100 µM (inactive)
COC(=O)Cc1c(-c2[nH]c3ccccc3c2CC(=O)OC)[nH]c2ccccc12 | 38.3 µM (inactive) | > 53 µM (inactive) | > 57 µM (inactive) | > 50.7 | > 50.9 µM (inactive) | > 59.3 µM (inactive) | > 58.6 µM (inactive) | > 52.4 µM (inactive) | > 55.6 µM (inactive) | > 63 µM (inactive) | > 49.9 µM (inactive) | 32.2 µM (inactive) | 67.5 µM (inactive) | > 55 µM (inactive) | > 57.7 µM (inactive) | > 58.1 µM (inactive) | 2.13 µM (inactive) | > 53.2 µM (inactive) | > 55.3 µM (inactive)
Cc1cc(N)c2cc(NC(=O)Nc3ccc4nc(C)cc(N)c4c3)ccc2n1 | > 100 µM (inactive) | > 100 µM (inactive) | > 100 µM (inactive) | > 100 | > 100 µM (inactive) | > 100 µM (inactive) | > 100 µM (inactive) | > 100 µM (inactive) | > 100 µM (inactive) | 32.4 µM (inactive) | > 100 µM (inactive) | > 100 µM (inactive) | – | > 100 µM (inactive) | > 100 µM (inactive) | > 100 µM (inactive) | > 100 µM (inactive) | > 100 µM (inactive) | > 100 µM (inactive)
Cc1ccc(C)c(/C(=N\N=C(N)N)C2CC2)c1 | 47.5 µM (inactive) | 35.1 µM (inactive) | 20.4 µM (inactive) | 48.6 | 47.2 µM (inactive) | 29.3 µM (inactive) | 32.4 µM (inactive) | 39.6 µM (inactive) | 41.5 µM (inactive) | 18.1 µM (inactive) | > 100 µM (inactive) | 46.6 µM (inactive) | 32.3 µM (inactive) | 35 µM (inactive) | 50.8 µM (inactive) | > 100 µM (inactive) | 45.5 µM (inactive) | 34 µM (inactive) | 59.8 µM (inactive)
CCN(CC)CCN(C)CCc1ccc(Br)cc1 | 13.8 µM (inactive) | 17.4 µM (inactive) | > 100 µM (inactive) | 61.1 | 27.4 µM (inactive) | 24.9 µM (inactive) | 42.9 µM (inactive) | 17.2 µM (inactive) | > 100 µM (inactive) | > 100 µM (inactive) | 97.3 µM (inactive) | > 100 µM (inactive) | 30.8 µM (inactive) | 41.7 µM (inactive) | > 100 µM (inactive) | > 100 µM (inactive) | > 100 µM (inactive) | > 100 µM (inactive) | 83.8 µM (inactive)
CCOC(=O)Nn1cnnc1C | > 100 µM (inactive) | > 100 µM (inactive) | > 100 µM (inactive) | > 100 | > 100 µM (inactive) | > 100 µM (inactive) | > 100 µM (inactive) | > 100 µM (inactive) | > 100 µM (inactive) | > 100 µM (inactive) | > 100 µM (inactive) | > 100 µM (inactive) | > 100 µM (inactive) | – | > 100 µM (inactive) | > 100 µM (inactive) | > 100 µM (inactive) | > 100 µM (inactive) | > 100 µM (inactive)
